Columns and labels:
Format in all cases: functional
[1] = system: Mycobacterium tuberculosis; assay: Antimycobacterial activity against Mycobacterium tuberculosis H37Rv at 6.25 ug/ml
Staphylococcus aureus = assay: Antibacterial activity against Staphylococcus aureus by […]
Escherichia coli = assay: Antibacterial activity against Escherichia coli by […]

Row | Compound | -log(inh/100-inh) [1] | inhibition zone (IZ) (Staphylococcus aureus) [mm] | inhibition zone (IZ) (Escherichia coli) [mm]
1 | Nc1ccc2c(N3CCCCC3)cc(N3CCNCC3)nc2n1 | 0.4102 | – | –
2 | c1ccc(-c2cc3ccc(N4CCNCC4)nc3nc2N2CCCCC2)cc1 | 0.908 | 18 | 14
3 | CCOC(=O)N1CCN(c2ccc3cc(-c4ccccc4)c(N4CCCCC4)nc3n2)CC1 | 1.0048 | 15 | 18
4 | Oc1ccc2c(N3CCOCC3)cc(N3CCOCC3)nc2n1 | -1.0048 | – | –
5 | Cc1ccc2c(Cl)c(Cc3ccccc3)c(N3CCOCC3)nc2n1 | -0.6021 | – | –
6 | Oc1ccc2c(-c3ccccc3)cc(N3CCOCC3)nc2n1 | – | 20 | 26
7 | Nc1ccc2c(-c3ccccc3)cc(N3CCCCC3)nc2n1 | 1.0048 | 14 | 20
8 | c1cc2c(N3CCCCC3)cc(N3CCOCC3)nc2nc1N1CCOCC1 | -0.908 | – | –
9 | c1cc2c(N3CCCCC3)cc(N3CCOCC3)nc2nc1N1CCCCC1 | -0.1224 | – | –
10 | CCOC(=O)N1CCN(c2nc3nc(N4CCOCC4)ccc3cc2-c2ccccc2)CC1 | 0.2499 | 13 | 17
11 | O=[N+]([O-])c1cc2cc(-c3ccccc3)c(N3CCCCC3)nc2nc1N1CCCCC1 | 0.5754 | 30 | –
12 | c1ccc(-c2cc(CCN3CCNCC3)nc3nc(CCN4CCNCC4)ccc23)cc1 | 0.6297 | 12 | 12
13 | CCOC(=O)N1CCN(c2nc3nc(Cl)ccc3cc2-c2ccccc2)CC1 | 0.3076 | – | 24
14 | COc1ccc2c(-c3ccccc3)cc(CCN3CCNCC3)nc2n1 | 0.4102 | – | –
15 | c1ccc(-c2cc3ccc(N4CCNCC4)nc3nc2N2CCNCC2)cc1 | 0.432 | 14 | 12
16 | Cc1ccc2c(N3CCOCC3)c(Cc3ccccc3)c(N3CCCCC3)nc2n1 | -0.6021 | – | –
17 | COc1ccc2c(-c3ccccc3)cc(N3CCCCC3)nc2n1 | 0.7533 | – | 20
18 | Cc1ccc2c(Cl)c(Cc3ccccc3)c(N3CCCCC3)nc2n1 | -0.1581 | – | –
19 | COc1ccc(-c2ccc3ccc(-c4ccc(N5CCNCC5)cc4)nc3n2)cc1 | 0.7884 | 28 | –
20 | CC(=O)Nc1ccc2c(Cl)cc(N3CCCCC3)nc2n1 | -1.0607 | – | –

Row | Compound | -log(inh/100-inh) [1] | inhibition zone (IZ) (Staphylococcus aureus) [mm] | inhibition zone (IZ) (Escherichia coli) [mm]
21 | c1ccc(-c2cc(N3CCOCC3)nc3nc(N4CCOCC4)ccc23)cc1 | – | 12 | –
22 | Nc1ccc2c(-c3ccccc3)cc(CCN3CCNCC3)nc2n1 | 0.3475 | 16 | 36
23 | Oc1ccc2c(-c3ccccc3)cc(N3CCCCC3)nc2n1 | – | 24 | –
24 | Nc1cc2cc(-c3ccccc3)c(N3CCCCC3)nc2nc1N1CCCCC1 | 0.3889 | – | 26
25 | c1ccc(-c2cc3ccc(N4CCOCC4)nc3nc2N2CCCCC2)cc1 | 0.6886 | 22 | 26
26 | Cc1ccc2c(Cl)c(C)c(Cl)nc2n1 | -1.9956 | – | –
27 | c1ccc(-c2cc3ccc(N4CCCCC4)nc3nc2N2CCNCC2)cc1 | 0.8653 | – | 18
28 | Cc1ccc2c(Cl)c(Cc3ccccc3)c(C)nc2n1 | 0.0872 | – | –
29 | Clc1cc(N2CCOCC2)nc2nc(N3CCCCC3)ccc12 | -0.432 | – | –
30 | Oc1cc(-c2ccccc2)c2ccc(N3CCNCC3)nc2n1 | -0.908 | – | –
31 | CCOC(=O)N1CCN(c2cc(-c3ccccc3)c3ccc(N4CCNCC4)nc3n2)CC1 | 1.0607 | 23 | 25
32 | Oc1ccc2c(-c3ccccc3)cc(CCN3CCNCC3)nc2n1 | -0.3889 | 12 | –
33 | Clc1ccc(-c2ccc3c(-c4ccccc4)cc(-c4ccc(N5CCNCC5)cc4)nc3n2)cc1 | 0.0871 | 22 | 14
34 | Clc1ccc2c(N3CCOCC3)cc(N3CCOCC3)nc2n1 | -1.9956 | – | –
35 | c1ccc(-c2cc3ccc(N4CCCCC4)nc3nc2N2CCCCC2)cc1 | 1.9956 | 16 | 20
36 | Cc1ccc2c(N3CCOCC3)c(C)c(N3CCCCC3)nc2n1 | -0.908 | – | –
37 | Clc1ccc2c(Cl)cc(N3CCOCC3)nc2n1 | -0.2126 | – | –
38 | Clc1ccc2c(N3CCCCC3)cc(N3CCOCC3)nc2n1 | -1.0607 | – | –
39 | Oc1ccc2c(Cl)cc(N3CCOCC3)nc2n1 | -1.6902 | – | –
40 | Nc1ccc2c(-c3ccccc3)cc(N3CCOCC3)nc2n1 | -0.0522 | 20 | 33

Row | Compound | -log(inh/100-inh) [1] | inhibition zone (IZ) (Staphylococcus aureus) [mm] | inhibition zone (IZ) (Escherichia coli) [mm]
41 | Clc1ccc2c(-c3ccccc3)cc(N3CCCCC3)nc2n1 | 0.368 | 26 | –
42 | Nc1ccc2c(Cl)cc(N3CCCCC3)nc2n1 | -0.2126 | – | –
43 | COC(=O)N1CCN(c2nc3nc(OC)ccc3cc2-c2ccccc2)CC1 | -0.1224 | 16 | 12
44 | Cc1ccc2c(Cl)c(C)c(N3CCCCC3)nc2n1 | -0.6886 | – | –
45 | c1ccc(-c2cc(N3CCCCC3)nc3nc(N4CCCCC4)ccc23)cc1 | 1.9956 | 14 | 28
46 | O=C(CCc1ccc2c(-c3ccccc3)cc(O)nc2n1)OCCN1CCNCC1 | -0.7202 | – | –
47 | c1cc2c(N3CCOCC3)cc(N3CCOCC3)nc2nc1N1CCOCC1 | -0.908 | – | –
48 | Oc1ccc(-c2ccc3c(-c4ccccc4)cc(-c4ccc(N5CCNCC5)cc4)nc3n2)cc1 | -0.3274 | 14 | 14
49 | Nc1ccc2c(N3CCCCC3)cc(N3CCOCC3)nc2n1 | -1.195 | – | –
50 | Clc1ccc2c(-c3ccccc3)cc(CCN3CCNCC3)nc2n1 | 0.3274 | – | 16
51 | COc1ccc2cc(-c3ccccc3)c(N3CCNCC3)nc2n1 | 0.3076 | 12 | 16
52 | COc1ccc2c(-c3ccccc3)cc(N3CCOCC3)nc2n1 | -0.2689 | – | 24
53 | c1cc(N2CCNCC2)ccc1-c1ccc2ccc(-c3ccc(N4CCNCC4)cc3)nc2n1 | -0.0522 | 12 | 18
54 | Nc1ccc2cc(-c3ccccc3)c(N3CCCCC3)nc2n1 | 0.1581 | 18 | –
55 | Cc1ccc2c(N3CCCCC3)c(Cc3ccccc3)c(N3CCCCC3)nc2n1 | 1.3802 | – | –
56 | Nc1ccc(-c2ccc3ccc(-c4ccc(N5CCNCC5)cc4)nc3n2)cc1 | 1.195 | 16 | 32
57 | CCOC(=O)N1CCN(c2ccc3cc(-c4ccccc4)c(N4CCN(C(=O)OCC)CC4)nc3n2)CC1 | -0.0348 | 17 | 18
58 | Clc1ccc2c(-c3ccccc3)cc(N3CCOCC3)nc2n1 | -0.2499 | 18 | 12

Reference: ChEMBL document CHEMBL3045959, “QSAR studies on substituted 3- or 4-phenyl-1,8-naphthyridine derivatives as antimicrobial agents” (2012)
